Where a name gives a salt, the structure may show the parent alone.
What was measured:
[1] = Stability test for OCA in a carbonated soft drink; type: physicochemical; conditions: 5000 Lux at 37° C. for 9 days
Protocol: Test 2: Stability Test for OCA in a Carbonated Soft Drink A carbonated soft drink was prepared consisting of water, 10 ppm trans-o-coumaric acid, 350 ppm Rebaudioside A, 250 ppm sodium benzoate, 150 ppm potassium sorbate, 0.1 wt.-% of lemon/lime extract flavour and 0.15 wt.-% sodium citrate/citric acid. The latter was added to obtain a pH of 3.0±0.2. Said mixture was carbonated with 2.7 volumes of carbon dioxide. This PET-bottled drink was stressed with 5000 Lux at 37° C. for 9 days, thereby simulating a storage time (shelf life) of about 9 months at 20° C. At the end of the test the soft drink still contained 8 ppm of OCA, corresponding to an OCA-stability of 80% after a storage time of about 9 months.

[2] = Solubility of homoeriodictyol salts; type: physicochemical; conditions: in words

| OCA content of the soft drink at the end of the test ([1]; 10 ppm at start, PET-bottled carbonated soft drink, pH 3.0±0.2) | OCA-stability ([1]; simulating a storage time of about 9 months at 20° C.) | solubility compared with pure homoeriodictyol sodium salt [2] | Structure (SMILES) |
| --- | --- | --- | --- |
| 8 ppm | 80% |  | O=C(O)/C=C/c1ccccc1O [OCA, (E)-3-(2-hydroxyphenyl)-2-propenoic acid] |
|  |  | better solubility | COc1cc([C@@H]2CC(=O)c3c(O)cc(O)cc3O2)ccc1O [homoeriodictyol potassium salt] |
